Where a name gives a salt, the structure may show the parent alone.

This note sets out measurements from patent US7396851B2, “Heterocyclic and benzoheterocyclic polyamides structurally related to the natural antibiotic distamycin A for the treatment of β-thalassaemia” (priority 2001, dated 2008).

One test concerns human cell line K562. In words: Erythroid differentiation of K562 cells (benzidine-positive cells). The conditions noted are these: mean±SD of five independent experiments. Type of test: cell-based. As to the method: The activity of the distamycin analogues described previously as inducers of erythroid cell differentiation was evaluated by studying the erythroid differentiation induced in human cell cultures.
The biological activity was evaluated by examining the capacity of those compounds to induce erythroid differentiation in the human cell line K562, which is capable of undergoing erythroid differentiation by expressing the genes for γ-globin if subjected to treatment with modifiers of the biological response that are suitable for the purpose (19-24). The level of differentiation was evaluated by analysing the positive reaction of the cells to benzidine (23). Some of the data obtained are given in Table 1, which represents the results of five independent experiments (mean±SD).

A further test concerns mRNA for γ-globin. In words: Expression of genes coding for γ-globins by RT-PCR / Northern blotting in K562 cells. The following applies: concentration 50 nM, quantitative RT-PCR, untreated control = 1. It is filed as cell-based, human. As to the method:
The expression of genes coding for γ-globins was evaluated by RT-PCR (reverse transcriptase PCR) and Northern blotting (25). […] The evaluations were carried out after 6 days' induction with the indicated molecules.
The Technique used is that of quantitative RT-PCR (28, 29) using the following oligonucleotide primers and probe: γ-globin forward primer, 5′-TGGCAAGAAGGTGCTGACTTC-3′; γ-globin reverse primer, 5′-TCA CTC AGC TGG GCA AAG G-3′; probe γ-globin, 5′-FAM-TGGGAGATGCCATAAAGCACCTGG-TAMRA-3′(FAM=6-carboxy fluorescein, TAMRA=6-carboxy-N,N,N′,N′-tetramethylrhodamine).

With `Cn1cc(NC(=O)c2cc(NC(=O)c3cc(NC(=O)c4cc5cc(N(CCCl)CCCl)ccc5o4)cn3C)cn2C)cc1C(=O)NCCC(=N)N` [Compound 3, 3-(1-methyl-4-(1-methyl-4-(1-methyl-4-(5-N,N-bis(2-chloroethyl)aminobenzofurane-2-carboxamido)pyrrole-2-carboxamido)pyrrole-2-carboxamido)pyrrole-2-carboxamido)propionamidine hydrochloride], in the test with human cell line K562 (concentration 100 nM), the “erythroid differentiation (%) = percentage of K562 cells that react positively to benzidine” value worked out at 72.4 ± 10.2%.

In the case of `Cl.Cn1cc(NC(=O)c2cc(NC(=O)c3nc(NC(=O)c4ccc(N(CCCl)CCCl)cc4)cn3C)cn2C)cc1C(=O)NCCC(=N)N` [Compound 2, 3-(1-methyl-4-(1-methyl-4-(1-methyl-4-(4-(N,N-bis(2-chloroethyl)amino)benzenecarboxamido)imidazole-2-carboxamido)pyrrole-2-carboxamido)pyrrole-2-carboxamido)propionamidine hydrochloride], the “erythroid differentiation (%) = percentage of K562 cells that react positively to benzidine” value with human cell line K562 (concentration 50 nM) was 85.2 ± 12.8%. In the case of `CN(C)CCCNC(=O)c1cc2cc(NC(=O)c3cc4cc(NC(=O)c5ccc(N(CCCl)CCCl)cc5)ccc4[nH]3)ccc2o1` [Compound 4, N-(3′-dimethylaminopropyl)-5-(5-(4-(bis(2-chloroethyl)amino)benzoylamino)-1H-indol-2-carboxamido)benzofurane-2-carboxamido hydrochloride], the “erythroid differentiation (%) = percentage of K562 cells that react positively to benzidine” value with human cell line K562 (concentration 500 nM) was found to be 30 ± 3.8%. On to `Cl.Cn1cc(NC(=O)c2cc(NC(=O)c3cc(NC(=O)c4ccc(N(CCCl)CCCl)cc4)cn3C)cn2C)cc1C(=O)NCCC(=N)N` [Compound 1, 3-(1-methyl-4-(1-methyl-4-(1-methyl-4-(4-(N,N-bis(2-chloroethyl)amino)benzenecarboxamido)pyrrole-2-carboxamido)pyrrole-2-carboxamido)pyrrole-2-carboxamido)propionamidine hydrochloride], for which the “erythroid differentiation (%) = percentage of K562 cells that react positively to benzidine” value with human cell line K562 (concentration 50 nM) is on record as 65.5 ± 8.8%. In the test with mRNA for γ-globin, the “mRNA for γ-globin, increase compared with untreated control K562 cells” value came to 11.5 ± 2.5.

Consider `Cn1cc(NC(=O)c2cc(NC(=O)c3cc(N(CC4CO4)CC4CO4)cn3C)cn2C)cc1C(=O)NCC/C(N)=N/C#N` (stereo not drawn) [Compound 5, 3-(1-methyl-4-(1-methyl-4-(1-methyl-4-(N,N-bis(2-oxiranylmethyl)amino)pyrrole-2-carboxamido)pyrrole-2-carboxamido)pyrrole-2-carboxamido)cyanopropionamidine hydrochloride], for which the “erythroid differentiation (%) = percentage of K562 cells that react positively to benzidine” value in the test with human cell line K562 (concentration 50 nM) is reported as 77 ± 10.1%.
